# In the supplement of paper PMC4862054:
# Columns and labels:
# Details in all cases: incubation time: 72 h
# CAL-120 [1] = assay: normalised response (% of control), CellTiter-Glo; higher = more viable cells (100 = DMSO, 0 = benzethonium chloride kill control)
# Procedure: (§1)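 DSRT, 72 h incubation, CellTox Green / CellTiter-Glo readout. Signal is normalised to DMSO and benzethonium chloride controls. Value is the normalised response at the highest dose.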
# HCC1143 [2] = assay: as above
# Procedure: as §1
# CAL-51 [3] = assay: as above
# Procedure: as §1
# MCF-10A [4] = assay: as above
# Procedure: as §1
# Hs578T [5] = assay: as above
# Procedure: as §1
# HCC1937 [6] = assay: as above
# Procedure: as §1
# MFM-223 [7] = assay: as above
# Procedure: as §1
# MDA-MB-453 [8] = assay: as above
# Procedure: as §1
# MDA-MB-468 [9] = assay: as above
# Procedure: as §1
# MDA-MB-436 [10] = assay: as above
# Procedure: as §1
# SK-BR-3 = assay: as above
# Procedure: as §1
# BT-549 [11] = assay: as above
# Procedure: as §1
# CAL-148 [12] = assay: as above
# Procedure: as §1
# CAL-85-1 [13] = assay: as above
# Procedure: as §1
# DU-4475 [14] = assay: as above
# Procedure: as §1
# BT-474 [15] = assay: as above
# Procedure: as §1
# HCC1599 [16] = assay: as above
# Procedure: as §1
# HDQ-P1 [17] = assay: as above
# Procedure: as §1
# MDA-MB-231 [18] = assay: as above
# Procedure: as §1
# CAL-120 [19] = assay: normalised response (% of control), CellTox Green; higher = less cell death (100 = DMSO, 0 = benzethonium chloride kill control)
# In short: (§2)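 Normalised signals at single concentrations make up the values. They come from breast cancer cell lines seeded (20 µl suspension) into 384-well plates with compound at 5 concentrations in 10-fold steps over a compound-specific 10,000-fold range, incubated 72 h, and read for CellTox Green fluorescence then CellTiter-Glo luminescence. Each plate was normalised to 0.1 % DMSO (100) and a positive kill control (0).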
# HCC1143 [20] = assay: as above
# In short: as §2
# CAL-51 [21] = assay: as above
# In short: as §2
# MCF-10A [22] = assay: as above
# In short: as §2
# Hs578T [23] = assay: as above
# In short: as §2
# HCC1937 [24] = assay: as above
# In short: as §2
# MFM-223 [25] = assay: as above
# In short: as §2
# MDA-MB-453 [26] = assay: as above
# In short: as §2
# MDA-MB-468 [27] = assay: as above
# In short: as §2
# MDA-MB-436 [28] = assay: as above
# In short: as §2
# BT-549 [29] = assay: as above
# In short: as §2
# CAL-148 [30] = assay: as above
# In short: as §2
# CAL-85-1 [31] = assay: as above
# In short: as §2
# DU-4475 [32] = assay: as above
# In short: as §2
# BT-474 [33] = assay: as above
# In short: as §2
# HCC1599 [34] = assay: as above
# In short: as §2
# HDQ-P1 [35] = assay: as above
# In short: as §2
# MDA-MB-231 [36] = assay: as above
# In short: as §2
Structure (SMILES),normalised response (CAL-120 [1]) [%],normalised response (HCC1143 [2]) [%],normalised response (CAL-51 [3]) [%],normalised response (MCF-10A [4]) [%],normalised response (Hs578T [5]) [%],normalised response (HCC1937 [6]) [%],normalised response (MFM-223 [7]) [%],normalised response (MDA-MB-453 [8]) [%],normalised response (MDA-MB-468 [9]) [%],normalised response (MDA-MB-436 [10]) [%],normalised response (SK-BR-3) [%],normalised response (BT-549 [11]) [%],normalised response (CAL-148 [12]) [%],normalised response (CAL-85-1 [13]) [%],normalised response (DU-4475 [14]) [%],normalised response (BT-474 [15]) [%],normalised response (HCC1599 [16]) [%],normalised response (HDQ-P1 [17]) [%],normalised response (MDA-MB-231 [18]) [%],normalised response (CAL-120 [19]) [%],normalised response (HCC1143 [20]) [%],normalised response (CAL-51 [21]) [%],normalised response (MCF-10A [22]) [%],normalised response (Hs578T [23]) [%],normalised response (HCC1937 [24]) [%],normalised response (MFM-223 [25]) [%],normalised response (MDA-MB-453 [26]) [%],normalised response (MDA-MB-468 [27]) [%],normalised response (MDA-MB-436 [28]) [%],normalised response (BT-549 [29]) [%],normalised response (CAL-148 [30]) [%],normalised response (CAL-85-1 [31]) [%],normalised response (DU-4475 [32]) [%],normalised response (BT-474 [33]) [%],normalised response (HCC1599 [34]) [%],normalised response (HDQ-P1 [35]) [%],normalised response (MDA-MB-231 [36]) [%]
CN(c1ccccc1CNc1nc(Nc2ccc3c(c2)CC(=O)N3)ncc1C(F)(F)F)S(C)(=O)=O (10000 nM),45.7,17.8,5.46,9.01,23.9,34.6,48.2,56.4,7.14,18.9,21.6,6.21,73,4.6,2.4,18.1,8.88,16.5,4.8,89.1,70.8,16.1,7.39,-25.4,51.5,92.2,105,110,92.8,52.9,58.1,11.5,64.2,84.8,60.9,68.7,-15.1
CCCC(CCC)C(=O)O [Valproic acid] (1000000 nM),103,106,87.6,94.6,99,100,96.3,81.2,97.8,100,99.1,106,88.4,96.7,89.9,100,98.2,103,98.6,111,111,98.4,119,129,88.4,99.5,102,126,106,111,95.9,97.4,97,105,93.9,107,98.7
Nc1nccc(-c2c(-c3ccc(F)cc3)ncn2C2CCCCC2)n1 (10000 nM),107,99.7,89.2,48.5,99.9,80.2,88,84.9,70.2,96,71.8,92.2,110,75.7,91.7,83.6,101,70.5,84.4,105,110,105,11.8,135,69.8,96,104,114,92.7,100,99.9,71.6,98.6,103,98.1,95.7,109
FC(F)c1nc2ccccc2n1-c1nc(N2CCOCC2)nc(N2CCOCC2)n1 [ZSTK474] (10000 nM),34.6,37.9,16.4,26.2,25.9,39.1,29.5,15.9,36.6,40.6,22.4,21.2,38.7,20.2,67.5,44.8,71.7,33,43.8,98.6,90.3,70.5,106,101,86.7,84.7,99.1,157,84.2,73.5,68.1,82.4,96.3,86.6,88.4,99.7,97.6
Cc1cc(C(C)Nc2ccccc2)c2nc(N3CCOCC3)cc(=O)n2c1 (centres undefined) [TGX-221] (10000 nM),88.5,86.8,67.6,82.5,79,78.6,88.7,76.1,58.1,70.9,78,78.7,105,98.2,95.6,70.9,99.2,88.6,72.5,96.3,76.9,93.5,,-33.5,79.8,94.5,90.7,152,78.3,84.2,97.4,106,94.7,92.8,91,,69
COC(=O)C[C@](O)(CCCC(C)(C)O)C(=O)O[C@@H]1C(OC)=C[C@]23CCCN2CCc2cc4c(cc2[C@H]13)OCO4 [Omacetaxine] (10000 nM),21.7,10.8,6.4,1.54,1.02,17.7,3.94,24.6,4.57,17.4,1.19,2.75,26.6,1.11,10.2,5.49,6.51,21.1,2.58,80.1,74.8,94.3,-13.6,33.9,107,30.1,98.8,84.9,32.1,77,1.18,-46.3,98.5,75.2,88.5,64.9,48.4
C[C@@H]1CCN(C(=O)CC#N)C[C@@H]1N(C)c1ncnc2[nH]ccc12 [Tofacitinib] (5000 nM),99.8,102,76.6,97.2,101,100,104,105,105,110,106,105,109,109,99.4,98.2,106,102,114,103,117,89.2,105,126,111,103,110,142,113,120,101,63.8,108,102,114,113,124
COc1cc(Nc2ncc(F)c(Nc3ccc4c(n3)NC(=O)C(C)(C)O4)n2)cc(OC)c1OC [Tamatinib] (10000 nM),94.9,101,74.1,107,102,97.5,110,112,71.2,95.7,109,67.4,109,97.5,107,95.6,91.6,100,103,100,115,83.7,103,104,97,94.1,103,-90.8,94.9,95,65.1,64.4,99,103,106,111,108
